In the supplement of paper PMC10307832:

Experiments:
Test in all cases: relative viability (nuclei count vs DMSO), 5 days (fraction); higher = more cells survive
Adavosertib + OSI-027 = compound: C=CCn1c(=O)c2cnc(Nc3ccc(N4CCN(C)CC4)cc3)nc2n1-c1cccc(C(C)(C)O)n1 [Adavosertib] + COc1cccc2cc(-c3nc([C@H]4CC[C@H](C(=O)O)CC4)n4ncnc(N)c34)[nH]c12 [OSI-027] (partner 0.5 µM)
In short: (§1)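 Lung cancer cell lines were seeded in 1536-well plates and dosed by pin tool the next day, with either a single drug or a fixed anchor-drug dose combined with five library-drug doses (not always all listed) spaced in √10 steps. Five days later, one step fixed the cells and stained their nuclei (final 0.05% Triton X-100, 1% formaldehyde, 1 ug/ml Hoechst), and nuclei were counted on 4× images. Relative viability is the nuclei count in treated wells divided by the count in vehicle wells, and each value is the median of duplicate plates.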

Adavosertib + Tozasertib = compound: C=CCn1c(=O)c2cnc(Nc3ccc(N4CCN(C)CC4)cc3)nc2n1-c1cccc(C(C)(C)O)n1 [Adavosertib] + Cc1cc(Nc2cc(N3CCN(C)CC3)nc(Sc3ccc(NC(=O)C4CC4)cc3)n2)n[nH]1 [Tozasertib] (partner 0.1 µM)
In short: as §1

Adavosertib + Pictilisib = compound: C=CCn1c(=O)c2cnc(Nc3ccc(N4CCN(C)CC4)cc3)nc2n1-c1cccc(C(C)(C)O)n1 [Adavosertib] + CS(=O)(=O)N1CCN(Cc2cc3nc(-c4cccc5[nH]ncc45)nc(N4CCOCC4)c3s2)CC1 [Pictilisib] (partner 1 µM)
In short: as §1

Adavosertib + Crizotinib = compound: C=CCn1c(=O)c2cnc(Nc3ccc(N4CCN(C)CC4)cc3)nc2n1-c1cccc(C(C)(C)O)n1 [Adavosertib] + C[C@@H](Oc1cc(-c2cnn(C3CCNCC3)c2)cnc1N)c1c(Cl)ccc(F)c1Cl [Crizotinib] (partner 1 µM)
In short: as §1

Adavosertib + Linsitinib = compound: C=CCn1c(=O)c2cnc(Nc3ccc(N4CCN(C)CC4)cc3)nc2n1-c1cccc(C(C)(C)O)n1 [Adavosertib] + C[C@]1(O)C[C@@H](c2nc(-c3ccc4ccc(-c5ccccc5)nc4c3)c3c(N)nccn32)C1 [Linsitinib] (partner 1 µM)
In short: as §1

Cell Line | relative viability (Adavosertib + OSI-027; first compound 0.01 µM) | relative viability (Adavosertib + OSI-027; first compound 0.03162 µM) | relative viability (Adavosertib + OSI-027; first compound 0.1 µM) | relative viability (Adavosertib + OSI-027; first compound 0.3162 µM) | relative viability (Adavosertib + Tozasertib; first compound 0.01 µM) | relative viability (Adavosertib + Tozasertib; first compound 0.03162 µM) | relative viability (Adavosertib + Tozasertib; first compound 0.1 µM) | relative viability (Adavosertib + Tozasertib; first compound 0.3162 µM) | relative viability (Adavosertib + Pictilisib; first compound 0.01 µM) | relative viability (Adavosertib + Pictilisib; first compound 0.03162 µM) | relative viability (Adavosertib + Pictilisib; first compound 0.1 µM) | relative viability (Adavosertib + Pictilisib; first compound 0.3162 µM) | relative viability (Adavosertib + Crizotinib; first compound 0.01 µM) | relative viability (Adavosertib + Crizotinib; first compound 0.03162 µM) | relative viability (Adavosertib + Crizotinib; first compound 0.1 µM) | relative viability (Adavosertib + Crizotinib; first compound 0.3162 µM) | relative viability (Adavosertib + Linsitinib; first compound 0.01 µM) | relative viability (Adavosertib + Linsitinib; first compound 0.03162 µM) | relative viability (Adavosertib + Linsitinib; first compound 0.1 µM) | relative viability (Adavosertib + Linsitinib; first compound 0.3162 µM)
NCI-H2347 | 0.515 | 0.414 | 0.473 | 0.298 | 0.476 | 0.674 | 0.718 | 0.511 | 0.567 | 0.61 | 0.297 | 0.762 | 0.72 | 0.778 | 0.772 | 0.699 | 0.944 | 0.93 | 1.09 | 0.914
NCI-H3122 | 0.972 | 0.914 | 1.07 | 1.06 | 0.414 | 0.383 | 0.462 | 0.469 | 0.584 | 0.606 | 0.72 | 0.613 | 0.287 | 0.241 | 0.294 | 0.271 | 1.08 | 0.954 | 1.06 | 1.06
HCC-15 | 0.669 | 0.786 | 0.756 | 0.802 | 0.385 | 0.409 | 0.481 | 0.444 | 0.724 | 0.713 | 0.727 | 0.934 | 0.826 | 0.818 | 0.96 | 0.967 | 0.878 | 0.876 | 1.05 | 0.989
HCC-78 | 0.355 | 0.354 | 0.325 | 0.339 | 0.589 | 0.348 | 0.351 | 0.464 | 0.194 | 0.221 | 0.255 | 0.171 | 0.34 | 0.351 | 0.339 | 0.347 | 0.597 | 0.422 | 0.522 | 0.562
A549 | – | – | – | – | – | – | – | – | 0.505 | 0.513 | 0.554 | 0.382 | 0.733 | 0.807 | 0.891 | 0.702 | 0.654 | 0.553 | 0.634 | 0.52
PC-3 [JPC-3] | 0.805 | 0.743 | 0.775 | 0.731 | 0.891 | 0.874 | 0.925 | 0.897 | 0.719 | 0.775 | 0.725 | 0.865 | 0.996 | 0.905 | 1.06 | 1 | 0.903 | 0.935 | 0.929 | 0.985
NCI-H1395 | 0.69 | 0.727 | 0.656 | 0.492 | 0.757 | 0.822 | 0.853 | 0.733 | 0.545 | 0.546 | 0.596 | 0.635 | – | – | – | – | 1.17 | 1.18 | 1.2 | 0.955
SK-MES-1 | 0.681 | 0.576 | 0.428 | 0.198 | 0.898 | 0.929 | 0.92 | 0.285 | 0.307 | 0.343 | 0.321 | 0.213 | 0.92 | 1.02 | 0.983 | 0.791 | 1.03 | 1.02 | 1.1 | 0.835
CAL-12T | 0.568 | 0.711 | 0.582 | 0.235 | 0.394 | 0.351 | 0.321 | 0.18 | – | 0.396 | 0.412 | 0.274 | 0.935 | 0.592 | 0.776 | 0.509 | 0.822 | 0.818 | 0.939 | 0.944
LCLC-97TM1 | 0.484 | 0.459 | 0.584 | 0.49 | 0.22 | 0.245 | 0.195 | 0.383 | – | 0.146 | 0.223 | 0.167 | – | 0.501 | 0.357 | 0.147 | – | 0.19 | 0.17 | 0.169
HOP-62 | 0.92 | 0.907 | 0.852 | 0.85 | 0.356 | 0.409 | 0.414 | 0.329 | 0.771 | 0.891 | 0.762 | 0.961 | 0.986 | 0.905 | 1.04 | 0.955 | 0.981 | 1.02 | 1.09 | 1.03
NCI-H1703 | – | – | – | – | – | – | – | – | 0.297 | 0.227 | 0.179 | 0.127 | 0.853 | 0.712 | 0.978 | 0.103 | 1.05 | 0.822 | 1.01 | 0.414
NCI-H596 | 0.784 | 0.914 | 0.752 | 0.732 | 1.03 | 0.826 | 1.02 | 0.93 | 0.338 | 0.379 | 0.419 | 0.348 | 1.04 | 1.07 | 1.11 | 1.03 | 1.04 | 1.01 | 1.01 | 1.11
NCI-H2126 | 0.569 | 0.697 | 0.769 | 0.727 | 0.808 | 0.834 | 0.863 | 0.924 | 0.531 | 0.526 | 0.506 | 0.521 | 1.05 | 1.01 | 1.08 | 1.07 | 0.695 | 0.712 | 0.703 | 0.722
NCI-H2087 | 0.591 | 0.685 | 0.603 | 0.478 | 0.303 | 0.258 | 0.273 | 0.234 | 0.86 | 0.947 | 0.833 | 0.923 | 0.911 | 0.96 | 1.03 | 0.896 | 0.906 | 1.11 | 1.07 | 0.87
NCI-H1355 | 0.396 | 0.387 | 0.364 | 0.355 | 0.549 | 0.553 | 0.522 | 0.615 | 0.476 | 0.404 | 0.45 | 0.378 | 1.04 | 0.985 | 1.04 | 0.908 | 0.892 | 0.701 | 0.872 | 0.808
EBC-1 | – | – | – | – | – | – | – | – | 0.387 | 0.429 | 0.382 | 0.286 | 0.206 | 0.192 | 0.206 | 0.175 | 0.91 | 0.962 | 0.994 | 1.18
